Results: ChEMBL document CHEMBL1121396, “10,10-Difluoro-13-dehydroprostacyclin: a chemically and metabolically stabilized potent prostacyclin” (J Med Chem, 1980)

Key:
[1] = Tested for effect to cause relaxation of […] mesenteric artery previously contracted by PGF2-alpha; type: functional
[2] = Tested for effect to cause relaxation of bovine coronary artery; type: functional, tissue-based, Bos taurus

SMILES: CCCCC[C@H](O)C#CC1C2C/C(=C\CCCC(=O)O)OC2C(F)(F)C1O (some centres undefined)
- EC50 [1]: 2.3 nM
- EC50 [2]: 8.5 nM

SMILES: CCCCC[C@H](O)/C=C/[C@@H]1[C@H]2C/C(=C/CCCC(=O)O)O[C@H]2C[C@H]1O [EPOPROSTENOL]
- EC50 [1]: 3.3 nM
- EC50 [2]: 28 nM
